Measured values as given in patent publication US5747065A, “Monoglyceride/lactate ester permeation enhancer for oxybutynin” (priority 1996, dated 1998).
Read-outs that look alike come from different tables or passages of the source.

How the values were obtained:
[1] = Solubility of glycerol monolaurate in lauryl lactate / EVA 40; format: physicochemical; conditions: for Wt % GML in solution (free GML): based on GML solubility of 350 mg/g
From the text: The unexpected effects of the specific weight percentages of the components of the permeation enhancer mixture are believed to be due, in part, to the solubility of the monoglyceride in the lactic acid ester. It is known that monoglycerides by themselves are effective permeation enhancers. The enhancement occurs by the solubilization of the monoglyceride in the lipid layer of the skin. The solubilization of the monoglyceride in the lipid layer increases as a function of lactic acid ester concentration. […] Thus, the amount of GML dissolved, ie, free GML, is dictated by and proportional to the lauryl lactate loading in the polymer.

[2] = 25 mg/mL aqueous oxybutynin, 20 μm polybutadiene film, 0.05M isotonic phosphate buffer, cited from earlier work
[3] = format: in vivo, human; conditions: transdermal, coadministered with the permeation enhancing mixture
Protocol: Representative skin permeation rates of oxybutynin through living human skin are in the range of about 5 μg/cm^2 ·hr to about 15 μg/cm^2 ·hr. Therapeutic blood levels can be achieved within approximately 6-10 hours after the initial application, and blood concentrations are maintained with subsequent system applications. The range of desired and achievable system permeation rates of oxybutynin, arriving through the skin from a limited area, is 1-20 mg over a period of 24 hours. The system application is easily adapted for shorter or longer duration treatments, but generally 72 hours is the duration for a single application.

[4] = compared with racemate; devices/gels of Table 4
Protocol: The drug/permeation enhancer reservoir was prepared by mixing, depending on the formulation, either ethylene vinyl acetate copolymer having a vinyl acetate content of 40 percent ("EVA 40", U.S.I. Chemicals, Illinois) or mineral oil and petrolatum in an internal mixer (Bra Bender type mixer) until the EVA 40 pellets fused. Oxybutynin, glycerol monolaurate and lauryl lactate were then added.
When EVA 40 was used the mixture was blended, cooled and calendered to a 5 mil thick film. This film was then laminated to an acrylic contact adhesive (MSP041991P, 3M) on one side and Medpar® backing (3M) on the opposite side. The laminate was then cut into 2.54 cm^2 circles using a stainless steel punch. Circular pieces of human-epidermis were mounted on horizontal permeation cells with the stratum corneum facing the donor compartment of the cell. The release liner of the system was then removed and the system was centered over the stratum corneum side of the epidermis. A known volume of the receptor solution (0.05M sodium phosphate buffer at pH 6) that had been equilibrated at 35° C. was placed in the receptor compartment. Air bubbles were removed; the cell was capped and placed in a water bath-shaker at 35° C.
When the mineral oil/petrolatum was used, the mixture, containing the drug and permeation enhancers, was blended/mixed and then poured into the donor side of a two-side diffusion cell. […]

**Q.** With CCCCCCCCCCCC(=O)OCC(O)CO (centres unmarked) [glycerol monolaurate] as the molecule, how does the “Wt % GML in solution (free GML)” value ([1]; 12% lauryl lactate in EVA 40) read?
**A.** 4.2%

**Q.** And the “Wt % GML in solution (free GML)” value ([1]; 20% lauryl lactate in EVA 40)?
**A.** 7.0%

**Q.** What about the “Wt % GML in solution (free GML)” value ([1]; 27% lauryl lactate in EVA 40) of the same molecule?
**A.** 9.5%

**Q.** What about the “Wt % GML in solution (free GML)” value ([1]; 30% lauryl lactate in EVA 40) of the same molecule?
**A.** 10.5%

**Q.** What about the “solubility in EVA 40 matrix” value ([1]; in an EVA 40 matrix) of the same molecule?
**A.** practically insoluble

**Q.** What about the “solubility of glycerol monolaurate in lauryl lactate” value ([1]; in lauryl lactate, solution stirred) of the same molecule?
**A.** 350 mg/g of solution

**Q.** Which results are given for CCN(CC)CC#CCOC(=O)C(O)(c1ccccc1)C1CCCCC1 (centres unmarked) [oxybutynin]?
**A.** in vitro release rate ([2]; per area): ~10 μg/cm^2 ·hr; in vitro release rate ([2]; through 49 cm^2 area): approximately 12 mg over 24 hours; time to therapeutic blood levels after the initial application [3]: 6 to 10 h

**Q.** Which “flux of R- or S-oxybutynin relative to the racemate” value [4] does the source give for CCN(CC)CC#CCOC(=O)[C@](O)(c1ccccc1)C1CCCCC1 [R-oxybutynin] here?
**A.** approximately equivalent to that of the racemate

**Q.** With CCN(CC)CC#CCOC(=O)[C@@](O)(c1ccccc1)C1CCCCC1 [S-oxybutynin] as the molecule, how does the “flux of R- or S-oxybutynin relative to the racemate” value [4] read?
**A.** approximately equivalent to that of the racemate
